Measured values taken from patent publication US20240358015A1, “HERBICIDAL COMPOSITIONS” (Agrematch Ltd., priority 2021, published 2024).

Columns and labels:
[1] = test system: Amaranthus palmeri; experiment: Growth-chamber post-emergence herbicidal assay (Example 2); type: in vivo
Experimental: Herbicidal activity was determined by post-emergence application on 8-day old plants (weeds) of the Amaranthus palmeri and Setaria viridis species that were grown at 16 hours/8 hours day/night cycles at 30° C./25° C., respectively. Leaf stage was typically 4-6 for A. palmeri and 3-4 for S. viridis.
In each treatment, 2-3 pots, each containing about 5 plants each (for Setaria viridis), and one 9-pack, containing about 9 plants (for Amaranthus palmeri), were sprayed using a VL-SET Paasche Airbrush with 0.3-1.5 ml solution containing 0.125-2 mg/ml of a tested compound, which is equivalent to about 125-2000 g/ha.
(§1) Damage assessment: Herbicidal activity was assessed and scored 3-4 days after application by visual inspection of the plants in comparison to plants treated with the formulation alone (with no active ingredient) as control. Activity score is in the range of 0 to 100, where 0 represents no herbicidal activity like control plants and 100 represents the maximal herbicidal activity (i.e., total death of the plant).
Formulation design: Compounds were tested on A. Palmeri in various formulations, and in varying concentrations for each of the tested formulations, in order to determine optimal conditions for its application and performance. Activity scores were determined as described hereinabove. Solubility scores were determined by visual inspection on a scale of 1-10, with 10 representing complete solubilization and 1 represents nullified solubilization.
Each of the obtained solution was then mixed with different adjuvants and applied at a rate equivalent to 500 g/ha for A. palmeri and 1000 g/ha for S. viridis. Herbicidal activity scores 3-4 days after application are presented Table 3 below.

[2] = test system: A. palmeri; experiment: Greenhouse post-emergence assay (Example 3); type: in vivo, Amaranthus palmeri; settings: 4% TWEEN 20, 0.05 M Tris buffer pH 8, 0.05% Break-Thru
Experimental: (§2) Plant seeds were sowed in 9 cm×9 cm×10 cm flowerpots. Timing of sowing (days before treatment application) for each plant is detailed in Table 7 below. 5 flowerpots of each species were used for each treatment. Seeds were sowed in wet clay soil and then covered with about 1 cm layer of dry clay soil.
(§3) Irrigation: Irrigation was carried out using VIBRONET-UD (NETAFIM) sprinklers hanging upside down one meter above the flowerpots. Water flow capacity-50 liters per hour. Irrigation was carried out three times a day for 10 minutes.
(§4) Treatments: Table 8 presents generally the protocols of the various treatments used in these assays.
(§5) 57.6 ml of 0.05 M Tris buffer pH=8 were added to 150 mg of Compound 1 and the mixture was stirred using a magnetic stirrer. 2.4 ml of TWEEN®20 were added and the mixture was stirred using a magnetic stirrer to obtain a 4% TWEEN®20-containing solution. 30 μl of Break-Thru were added to obtain a 0.05% Break-Thru-containing solution.
as §5, with “225” for “150”
(§6) Plants were sprayed using a DeVreis Generation 4 Research Track Sprayer with a TEE JET nozzle 80015EVS. Spraying volume was 200 L/ha using the following sprayer parameters: • Spray speed-2 KMH • Spray length-1.50 m • Spray pressure-42 PSI
(§7) Each plant was sprayed twice, yielding a total spraying volume of 400 L/ha. Nozzle was located 55 cm above pots ground level.
(§8) A. palmeri, S. viridis and S. nigrum plants were elevated with 8 cm tray, Z. mays plants were elevated with 3 cm tray in order to achieve a similar spraying height for all plant's foliage.
(§9) Plants were scored by visual inspection of symptoms, on a scale of 0-100, where 0 represents no herbicidal activity like control plants and 100 represents the maximal herbicidal activity (i.e., total death of the plant). Each pot was scored separately. DAT=days after treatment

[3] = test system: Z. mays; experiment: Greenhouse post-emergence assay (Example 3); type: in vivo, Zea mays; settings: 4% TWEEN 20, 0.05 M Tris buffer pH 8, 0.05% Break-Thru
Experimental: as §2, §3, §4, §5
as §5, with “225” for “150”
as §6, §7, §8, §9

[4] = test system: A. theophrasti; experiment: Growth-chamber post-emergence assay on various weed species (Example 7); type: in vivo, Abutilon theophrasti; settings: 1500 g/ha; 0.8% MIPA, 0.25% Genapol, 2% HASTEN, 0.05% Break-Thru
Experimental: Herbicidal activity of Compound 1 was determined by post-emergence application on various weed species. 8-14 day old plants (weeds) were grown at 16 hours/8 hours day/night cycles at 30° C./25° C., respectively. Leaf stage was typically 2-6.
In each treatment, 3 pots (either 7×7 or 8×12 cm), containing about 3-6 plants each, were sprayed using a VL-SET Paasche Airbrush with a 1-1.5 ml-solution containing 0.5-1.5 mg/ml of the tested compound, which is equivalent to about 500-1500 g/ha.
as §1

[5] = test system: Resistant A. rudis (target-site resistant to HRAC class 5); experiment: Net-house assay with resistant weeds (Example 9); type: in vivo, Amaranthus rudis; settings: 1,500 g/ha, 13 days after application, scale 0-100
Experimental: (§10) Herbicidal activity of Compound 1 was determined by post-emergence application in both Growth-chamber and Net-house conditions. Growing conditions were as described in Examples 6 and 8 above.
(§11) The assay was performed on 13-15 day old plants (weeds) of Amaranthus rudis that were either target-site resistant or sensitive to HRAC class 5. In each treatment, 3 pots (8×12 cm), containing about 6 Amaranthus Rudis plants, were sprayed using a VL-SET Paasche Airbrush with a 1 ml-solution.
as §1, with “13” for “3-4”

[6] = test system: Sensitive A. rudis; experiment: Net-house assay with resistant weeds (Example 9); type: in vivo, Amaranthus rudis; settings: 1,500 g/ha, 13 days after application, scale 0-100
Experimental: as §10, §11
as §1, with “13” for “3-4”

[7] = 1000 g/ha (2.5 mg/ml, 400 L/ha), 1 DAT, scale 0-100
[8] = 1000 g/ha (2.5 mg/ml, 400 L/ha), 3 DAT
[9] = 1000 g/ha (2.5 mg/ml, 400 L/ha), 6 DAT
[10] = 1000 g/ha (2.5 mg/ml, 400 L/ha), 8 DAT
[11] = 1000 g/ha (2.5 mg/ml, 400 L/ha), 15 DAT
[12] = 1500 g/ha (3.75 mg/ml, 400 L/ha), 1 DAT
[13] = 1500 g/ha (3.75 mg/ml, 400 L/ha), 3 DAT
[14] = 1500 g/ha (3.75 mg/ml, 400 L/ha), 6 DAT
[15] = 1500 g/ha (3.75 mg/ml, 400 L/ha), 8 DAT
[16] = 1500 g/ha (3.75 mg/ml, 400 L/ha), 15 DAT

SMILES: O=C(O)c1cc(O)c2c(c1)C(=O)c1cccc(O)c1C2=O [Compound 1, Rhein]
- Herbicidal activity score ([1]; 500 g/ha, 0.5 mg/ml in 0.007% Ammonium hydroxide, 0.25% Adsee, 3-4 days after application): 30
- Herbicidal activity score ([1]; 500 g/ha, 0.5 mg/ml in 0.007% Ammonium hydroxide, 0.25% Genapol X-080, 3-4 days after application): 50
- Herbicidal activity score ([1]; 500 g/ha, 0.5 mg/ml in 0.007% Ammonium hydroxide, 0.7% Sodium Lauryl Ether sulfate, 3-4 days after application): 85
- Herbicidal activity score ([1]; 500 g/ha, 0.5 mg/ml in 0.007% Ammonium hydroxide, 1% AGNIQUE, 0.05% Ca-LAS, 0.02% BSU, 3-4 days after application): 70
- Herbicidal activity score ([1]; 500 g/ha, 0.5 mg/ml in 0.007% Ammonium hydroxide, 2% Tween 20, 3-4 days after application, scale 0-100): 60
- Herbicidal activity score ([1]; 500 g/ha, 0.5 mg/ml in 0.019% MIPA, 0.25% Adsee, 3-4 days after application): 80
- Herbicidal activity score ([1]; 500 g/ha, 0.5 mg/ml in 0.019% MIPA, 0.25% Genapol X-080, 3-4 days after application): 70
- Herbicidal activity score ([1]; 500 g/ha, 0.5 mg/ml in 0.019% MIPA, 0.7% Sodium Lauryl Ether sulfate, 3-4 days after application): 90
- Herbicidal activity score ([1]; 500 g/ha, 0.5 mg/ml in 0.019% MIPA, 1% AGNIQUE, 0.05% Ca-LAS, 0.02% BSU, 3-4 days after application): 80
- Herbicidal activity score ([1]; 500 g/ha, 0.5 mg/ml in 0.019% MIPA, 2% Tween 20, 3-4 days after application): 95
- Activity Score ([1]; 500 g/ha, 2% TWEEN 20, 5 mM MIPA, 1% AGNIQUE, 0.05% Ca-LAS, 0.02% BSU, 0.05% Break-Thru): 95
- Activity Score ([1]; 1000 g/ha, 1% TWEEN 80, 0.05M Tris buffer pH 8, 0.05% Break-Thru, 3-4 days after application, scale 0-100): 100
- Activity Score ([1]; 1500 g/ha, 4% TWEEN 20, 0.05M Tris buffer pH 8, 0.05% Break-Thru): 95
- Activity Score ([1]; 2000 g/ha, 1% TWEEN 80, 0.05M Tris buffer pH 8, 0.05% Break-Thru): 95
- Score by visual inspection of symptoms (average ± standard deviation, 5 pots) [2, 7]: 22 ± 13
- Score by visual inspection of symptoms (average ± standard deviation, 5 pots) [2, 8]: 54 ± 11.4
- Score by visual inspection of symptoms (average ± standard deviation, 5 pots) [2, 9]: 36 ± 8.9
- Score by visual inspection of symptoms (average ± standard deviation, 5 pots) [2, 10]: 34 ± 11.4
- Score by visual inspection of symptoms (average ± standard deviation, 5 pots) [2, 11]: 20 ± 15.8
- Score by visual inspection of symptoms (average ± standard deviation, 5 pots) [2, 12]: 38 ± 29.5
- Score by visual inspection of symptoms (average ± standard deviation, 5 pots) [2, 13]: 90 ± 9.4
- Score by visual inspection of symptoms (average ± standard deviation, 5 pots) [2, 14]: 87 ± 9.7
- Score by visual inspection of symptoms (average ± standard deviation, 5 pots) [2, 15]: 83 ± 14
- Score by visual inspection of symptoms (average ± standard deviation, 5 pots) [2, 16]: 66 ± 29.7
- Score by visual inspection of symptoms (average ± standard deviation, 5 pots) [3, 7]: 0 ± 0
- Score by visual inspection of symptoms (average ± standard deviation, 5 pots) [3, 8]: 30 ± 0
- Score by visual inspection of symptoms (average ± standard deviation, 5 pots) [3, 9]: 20 ± 0
- Score by visual inspection of symptoms (average ± standard deviation, 5 pots) [3, 10]: 22 ± 4.5
- Score by visual inspection of symptoms (average ± standard deviation, 5 pots) [3, 11]: 10 ± 0
- Score by visual inspection of symptoms (average ± standard deviation, 5 pots) [3, 12]: 0 ± 0
- Score by visual inspection of symptoms (average ± standard deviation, 5 pots) [3, 13]: 30 ± 0
- Score by visual inspection of symptoms (average ± standard deviation, 5 pots) [3, 14]: 30 ± 0
- Score by visual inspection of symptoms (average ± standard deviation, 5 pots) [3, 15]: 28 ± 4.5
- Score by visual inspection of symptoms (average ± standard deviation, 5 pots) [3, 16]: 20 ± 0
- Herbicidal activity score [4]: 40
- Herbicidal activity score [5]: 100
- Herbicidal activity score [6]: 100
